From patent US8845999B2 (The Regents of the University of California, priority 2005, dated 2014)
Where two headings read alike, the source gives them in different places.

What was measured:
SGLTs [1] = assay: MicroPET images of rat's brain after intravenous injection of radiofluorinated glucose derivatives; conditions: same animal, images 50-70 min after intravenous injection, FIG. 7
Description: A bolus of a radiolabeled tracer is administered to a non-human primate, rodent, or other non-human mammal, intravenously or orally, and the distribution of tracer transport activity is followed by radiographic means, e.g., PET, microPET and/or SPECT. For PET, an intravenous dose of the tracer contains ˜200 μC/Kg (body weight) methyl 4-[^18F]fluoro-4-deoxy-D-glucopyranoside dissolved in <1 ml saline. […] The identity of each organ and tissue taking up the tracer is confirmed by CT scans.
FIG. 7 presents MicroPET images of a rat's brain after injection of radiofluorinated glucose derivatives. […] These experiments were performed in the same animal at three different occasions. […] The images were acquired using a Concorde 220 microPET camera (Siemens/CTI, Knoxville, Tenn.). The animal was kept under anesthesia with 2% isoflurane in oxygen during all three experiments. Injectable solutions of all radiotracers were prepared in normal saline (0.9% NaCl).

[2] = test system: sodium-dependent glucose transporters (SGLTs); assay: Micro-PET tests in rodents and PET tests in Vervet monkeys and human volunteers: substrate specificity; format: in vivo; conditions: both anomeric forms
Source text: A nonlimiting example of a radiolabeled tracer according to the present invention is methyl 4-deoxy-4-[^18F]fluoro-D-glucopyranoside (“Me-4-[^18F]-FDG”), synthesized in either of its two anomeric forms, alpha-methyl 4-[^18F]-FDG and beta-methyl 4-[^18F]-FDG, or as a racemic mixture. […] For example, Me-4-[^18F]-FDG is not a substrate for GLUT1 in the blood brain barrier. It is a novel, high affinity tracer for SGLTs in those cells expressing SGLTs.

SGLTs [3] = assay: Whole body PET scan of Vervet monkey; format: in vivo; conditions: FIG. 3
Source text: Scans can be conducted both with and without administering one or more pharmacological agents, e.g., sodium, phlorizin, glucose, galactose, etc.
FIG. 3 is a nonlimiting example of a methyl 4-[^18F]-FDG whole body PET scan of a Vervet monkey.

SGLTs [4] = assay: Whole body PET scan of human subjects; format: in vivo
Description: For a 50-70 kg person, 10 mC of methyl 4-deoxy-4-[^18F]fluoro-D-glucopyranoside dissolved in <1 ml saline is injected intravenously, and the distribution of the tracer is followed dynamically in whole body PET scans for up to 2 hours (up to 8 scans at different time intervals). SGLT activity in organs and tissues is determined from the tracer uptake. The anatomical location of tracer uptake in both normal subjects and cancer patients is determined using CT scans.
FIGS. 4 and 5 are nonlimiting examples of 2-[^18F]-FDG and Methyl 4[^18F]-FDG scans, respectively, of the same human subject.
FIG. 6 is a nonlimiting example of a whole body PET scan of a patient with Glucose-Galactose-Malabsorption (missing functional SGLT1 in their body), after being injected with Me-[18F]-4FDG.

SGLT1 [5] = target: T1, SGLT1 (Homo sapiens, UniProt P13866); assay: Affinity for SGLT1; format: biochemical
T1 sequence (P13866 1-664): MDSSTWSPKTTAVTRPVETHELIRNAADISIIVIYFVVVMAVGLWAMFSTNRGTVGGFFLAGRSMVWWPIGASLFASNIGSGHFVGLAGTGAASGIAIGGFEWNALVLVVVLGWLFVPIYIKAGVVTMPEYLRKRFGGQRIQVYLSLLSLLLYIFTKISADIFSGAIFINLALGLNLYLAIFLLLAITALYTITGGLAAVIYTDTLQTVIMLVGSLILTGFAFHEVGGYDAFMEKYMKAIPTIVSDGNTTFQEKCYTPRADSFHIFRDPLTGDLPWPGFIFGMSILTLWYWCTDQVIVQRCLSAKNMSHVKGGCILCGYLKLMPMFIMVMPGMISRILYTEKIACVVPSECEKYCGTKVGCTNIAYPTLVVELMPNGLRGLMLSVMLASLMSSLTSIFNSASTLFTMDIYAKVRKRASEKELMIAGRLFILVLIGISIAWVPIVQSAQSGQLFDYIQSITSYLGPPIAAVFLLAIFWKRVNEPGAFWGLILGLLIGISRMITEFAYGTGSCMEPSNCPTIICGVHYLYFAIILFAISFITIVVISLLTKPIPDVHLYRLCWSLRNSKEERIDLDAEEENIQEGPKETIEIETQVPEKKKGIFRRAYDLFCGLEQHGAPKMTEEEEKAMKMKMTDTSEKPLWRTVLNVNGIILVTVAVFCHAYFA
Source text: A [^11C]-methyl-D-glucoside has been synthesized and biologically evaluated as a tracer of sodium dependent glucose transporters. […] A commentary on this paper was published in the same issue of the journal. […] In addition, three ^18F-fluoro-n-alkyl glucosides have been synthesized and evaluated as potential substrates for sodium/glucose cotransporters. […] There are limitations with these probes in that the lifetime of [^11C] is shorter than that of [^18F]
Optionally, additional information can be obtained by also administering one or more pharmacological or other agents to the animal, and monitoring the effect of the agent(s) on tracer uptake and distribution. Nonlimiting examples of suitable agents, include sodium ion, glucose, galactose, and phlorizin. […] Any therapeutic agent can also be used to evaluate its potential role and in vivo activity on SGLTs in various organs, using in vivo competitive kinetics with the radiolabeled tracer.

Hexokinase [6] = target: T2, Hexokinase; parameters: Hexokinase Vmax: unit not given here; conditions: Bessel (1972), cited from earlier work; for Hexokinase Vmax: D-glucose = 1
T2 construct: Hexokinase Ki; other: Bessel (1972); Hexokinase Vmax; D-glucose = 1; hexokinase maximum velocity lower than that for D-glucose

human GLUT1 = target: T3, human GLUT1 (Homo sapiens, UniProt P11166); conditions: cited from earlier work
T3 construct: host or cells: human erythrocytes (endogenous transporter)
T3 sequence (P11166 1-492): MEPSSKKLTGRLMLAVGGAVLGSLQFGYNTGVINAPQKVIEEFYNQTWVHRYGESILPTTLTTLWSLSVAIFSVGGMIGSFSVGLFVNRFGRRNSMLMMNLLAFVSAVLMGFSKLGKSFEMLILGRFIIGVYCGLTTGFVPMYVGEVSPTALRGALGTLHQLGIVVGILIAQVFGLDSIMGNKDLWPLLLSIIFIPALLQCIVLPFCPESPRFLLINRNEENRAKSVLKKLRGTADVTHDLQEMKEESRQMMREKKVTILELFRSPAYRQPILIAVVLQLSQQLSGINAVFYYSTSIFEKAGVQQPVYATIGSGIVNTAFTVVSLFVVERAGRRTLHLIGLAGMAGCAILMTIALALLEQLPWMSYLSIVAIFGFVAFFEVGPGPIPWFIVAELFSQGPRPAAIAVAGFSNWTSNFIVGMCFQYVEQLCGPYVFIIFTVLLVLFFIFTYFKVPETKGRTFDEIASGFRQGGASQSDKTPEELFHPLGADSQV

Hexokinase [7] = assay: Hexokinase kinetics (Bessel 1972); format: biochemical
Hexokinase [8] = test system: T2, Hexokinase; assay: Hexokinase kinetics (Bessel 1972); format: biochemical; conditions: from Table 2
[9] = Preliminary microPET studies of brain uptake; conditions: rodent
SGLT1 [10] = conditions: pumped into cells by SGLT1; cited from earlier work
[11] = substrate: O=C[C@H](O)[C@@H](O)[C@H](O)[C@H](O)CO; assay: Kinetics of halogenated hexose transport by human SGLT1 expressed in Xenopus laevis oocytes, electrophysiological assay; format: cell-based; conditions: other: human SGLT1 in Xenopus laevis oocytes
Source text: (§1) We have expressed human SGLT1 in the Xenopus laevis oocyte expression system and measured the kinetics of halogenated hexose transport using standard electrophysiological assays (see Diez-Sampedro et al. J. Biological Chemistry, 2001, 276: 49188-49194). Table 2 presents kinetic measurements of the SGLT1 affinities of various sugars. […] “Km.” is the Michaelis-Menten constant and refers to the ability of a sugar to be a substrate for a specific enzyme or transporter. The lower the Km, the better the substrate. “Vmax” refers to the maximum velocity of transport (or enzymatic reaction). Km is the concentration of substrate at ½ Vmax. “Ki” is an inhibition constant for a specific enzyme or transporter, obtained by competitive kinetics against a known substrate.

[12] = substrate: O=C[C@H](O)[C@@H](O)[C@@H](O)[C@H](O)CO; assay: as above; format: cell-based; conditions: other: human SGLT1 in Xenopus laevis oocytes
Source text: as §1

[13] = Barnett et al. (1973), read-out: GLUT1 Ki
[14] = Barnett et al. 1973, read-out: inhibitor constants for sugar uptakes into human erythrocytes

Molecule: COC1O[C@H](CO)[C@@H]([18F])[C@H](O)[C@H]1O (stereo partly drawn) [Me-4-[^18F]-FDG, methyl 4-deoxy-4-[^18F]fluoro-D-glucopyranoside]
- brain uptake / crossing of the blood-brain barrier, microPET (SGLTs [1]): lack of brain uptake
- substrate for SGLTs / GLUTs [2]: substrate for sodium-dependent glucose transporters (SGLTs), but not a substrate for GLUTs
- tracer distribution, whole body PET (SGLTs [3]): accumulated in the liver, heart, and kidneys, but not in the brain and little in the urinary bladder
- excretion into the urinary bladder, whole body PET (SGLTs [4]; patient with Glucose-Galactose-Malabsorption (missing functional SGLT1), FIG. 6): excretion of the tracer into the urinary bladder
- affinity for SGLT1 (SGLT1 [5]): 50 µM

Molecule: OC[C@H]1OC(O)[C@H](F)[C@@H](O)[C@@H]1O (stereo partly drawn) [2-F-2-deoxy-D-glucose, 2-deoxy-2-[^18F]fluoro-D-glucose]
- Ki (Hexokinase [6]): 0.2 mM
- Ki (human GLUT1; [13]): 3.6 mM

Molecule: OC[C@H]1OC([18F])[C@H](O)[C@@H](O)[C@@H]1O (stereo partly drawn) [1-F-1-deoxy-D-glucose, 1-[^18F]fluoro-1-deoxy-D-glucose]
- substrate quality for hexokinase (Hexokinase [7]): poor substrates for hexokinase

Molecule: OCC1OC(O)C(O)C(F)C1O (stereo not drawn)
- substrate quality for hexokinase (Hexokinase [7]): poor substrates for hexokinase
- hexokinase affinity lower than that for D-glucose (Hexokinase [8]): 400 fold
- hexokinase maximum velocity lower than that for D-glucose (Hexokinase [8]): 10 fold
- Hexokinase Vmax (Hexokinase [6]): 0.1
- Ki (Hexokinase [6]): 70 mM
- Ki (human GLUT1; [14]): ~7 mM
- Ki (human GLUT1; [13]): 7 mM

Molecule: O=C[C@H](O)[C@@H](O)[C@H]([18F])[C@H](O)CO [4-F-4-deoxy-D-glucose]
- uptake into brain, microPET [9]: taken up rapidly into rodent brains
- substrate quality for hexokinase (Hexokinase [7]): poor substrates for hexokinase
- hexokinase affinity lower than that for D-glucose (Hexokinase [8]): 400 fold
- hexokinase maximum velocity lower than that for D-glucose (Hexokinase [8]): 10 fold
- Hexokinase Vmax (Hexokinase [6]): 0.1

Molecule: O=C[C@H](O)[C@@H](O)[C@H](O)[C@H](O)CF [6-F-4-deoxy-D-glucose]
- Ki (human GLUT1; [14]): 1.3 mM
- Ki (human GLUT1; [13]): 1 mM

Molecule: O=C[C@H](O)[C@@H](O)[C@H](O)[C@H](O)CO [D-glucose]
- Hexokinase Vmax (Hexokinase [6]): 1
- Ki (Hexokinase [6]): 0.2 mM
- Ki (human GLUT1; [14]): ~7 mM
- Ki (human GLUT1; [13]): 6 mM

Molecule: OC[C@H]1OC(O)[C@H]([18F])[C@@H](O)[C@@H]1O (stereo partly drawn) [2-F-2-deoxy-D-glucose, 2-deoxy-2-[^18F]fluoro-D-glucose]
- brain uptake / crossing of the blood-brain barrier, microPET (SGLTs [1]): cross the blood-brain barrier and accumulate in the brain
- Hexokinase Vmax (Hexokinase [6]): 0.5
- accumulation in the brain and elimination into the urinary bladder, PET (SGLTs [4]; normal human subject, FIGS. 4 and 5): accumulated in the brain and eliminated into the urinary bladder

Molecule: O=C[C@H](O)[C@@H](O)[C@H](O)[C@H](O)C[18F] [6-F-4-deoxy-D-glucose]
- substrate quality for hexokinase (Hexokinase [7]): poor substrates for hexokinase
- Hexokinase Vmax (Hexokinase [6]): 0

Molecule: CO[C@H]1O[C@H](CO)[C@@H](O)[C@H](O)[C@H]1O [alpha-methyl-D-glucopyranoside]
- concentration in cells above plasma concentrations (SGLT1 [10]): ≤ 800 fold

Molecule: O=C[C@H](O)[C@@H](O)[C@@H](O)[C@H](O)CF
- Ki (human GLUT1; [14]): ~7 mM

Molecule: O=C[C@H](O)[C@@H](O)[C@@H](O)[C@H](O)CO [D-galactose]
- Ki (human GLUT1; [13]): 90 mM

Molecule: O=C[C@H](O)[C@@H](O)[C@H](F)[C@H](O)CO [4-F-4-deoxy-D-glucose]
- Ki (Hexokinase [6]): 84 mM

Molecule: COC1O[C@H](CO)[C@@H](F)[C@H](O)[C@H]1O (stereo partly drawn) [Me-4-[^18F]-FDG, methyl 4-deoxy-4-[^18F]fluoro-D-glucopyranoside]
- Km (SGLT1 [5]): 50 µM

Molecule: OC[C@H]1OC(F)[C@H](O)[C@@H](O)[C@@H]1O (stereo partly drawn) [1-F-1-deoxy-D-glucose, 1-[^18F]fluoro-1-deoxy-D-glucose]
- Ki (human GLUT1; [13]): 15 mM

B1: human SGLT1 (Homo sapiens) (protein)
chain: T1 sequence (P13866 1-664)
notes: expressed in transfected cells; host or cells: Xenopus laevis oocytes
- Km [11]: 0.5 mM
- Km [12]: 0.6 mM
